The record followed here is US6086849A, “Technetium-99m labeled peptides for imaging” (Diatide, Inc., priority 1995, dated 2000).

A value given as a limit tells only on which side of the number the result lay.

The test system of series [1] is deep vein thrombus (femoral vein, embolization coil). As to the kind of experiment: In vivo imaging of deep vein thrombosis in a canine model. Details: species or system dog. The source says:
Mongrel dogs (25-35 lb., fasted overnight) were sedated with a combination of ketamine and aceprozamine intramuscularly and then anesthetized with sodium pentobarbital intravenously. An 18-gauge angiocath was inserted in the distal half of the right femoral vein and an 8 mm Dacron®-entwinedstainless steel embolization coil (Cook Co., Bloomington Ind.) was placed in the femoral vein at approximately mid-femur in each animal. The catheter was removed, the wound sutured and the placement of the coil documented by X-ray. The animals were then allowed to recover overnight.
One day following coil placement, each animal was re-anesthetized, intravenous saline drips placed in each foreleg and a urinary bladder catheter inserted to collect urine. The animal was placed supine under a gamma camera which was equipped with a low-energy, all purpose collimator and photopeaked for Tc-99m. Images were acquired on a NucLear Mac computer system.
Tc-99m labeled P357 [(CH2 CO--YD.Apc.GDCGGCAcm GCAcm GGC.amide)2 -[BAT-BS]] [185-370 MBq (5-10 mCi) Tc-99m and 0.2-0.4 mg P357] was injected into one foreleg intravenous line at its point of insertion. The second line was maintained for blood collection. Anterior images over the legs were acquired for 500,000 counts or 20 min (whichever was shorter), at approximately 10-20 min, and at approximately 1, 2, 3 and 4 h post-injection. Following the collection of the final image, each animal was deeply anesthetized with pentobarbital. Two blood samples were collected on a cardiac puncture using a heparinized syringe followed by a euthanazing dose of saturated potassium chloride solution administered by intercardiac or bolus intravenous injection. The femoral vein containing the thrombus and samples of thigh muscle were then carefully dissected out. The thrombus was then dissected free of the vessel and placed in a pre-weighed test tube. The thrombus samples were then weighed and counted in a gamma well counter in the Tc-99m channel. Known fractions of the injected doses were counted as well.
Fresh thrombus weight, percent injected dose (%ID)/g in the thrombus and blood obtained just prior to euthanasia and thrombus/blood and thrombus/muscle ratios determined. Thrombus/background ratios were determined by analysis of the counts/pixel measured in regions-of-interest(ROI) drawn over the thrombus and adjacent muscle from computer-stored images.

The next series relates to atherosclerotic plaque. Type of series: in vivo, New Zealand White rabbit. As to the method:
Twenty-two New Zealand White (NZW) rabbits of both sexes and weighing 2-3 kg were divided into two groups. The control group consisted of 6 rabbits that were housed and fed commercial rabbit chow (Purina). Sixteen rabbits, the HC group, were fed a standardized, cholesterol-rich diet (rabbit chow mixed to a 1% w/w concentration of cholesterol) from seven weeks until 28 weeks of age. All animals were given water ad libitum.
Tc-99m labeled P215 ([BAT]RALVDTLKFVTQAEGAK.amide) was prepared as described above. Approximately 250-400 μg of peptide was labeled with 140-160 mCi of Tc-99m and prepared in unit doses of 7-8 mCi (12.5-20.0 μg/rabbit; 6-7 μg/kg) in 0.2 mL volume doses. Adult rabbits were dosed with Tc-99m labeled peptide intravenously in a lateral ear vein by slow bolus infusion (approximately 0.1 mL/min). A gamma camera fitted with a pin-hole collimator (5 mm aperture) and energy window set for Tc-99m and programmed to accumulate 500,000 counts or scan for a desired time. Shortly before imaging, animals were anesthetized with a mixture of ketamine and xylazine (5:1, 1 mL/kg intramuscularly).
Gamma camera images were collected at 40-45° just above the heart (left anterior oblique [LAO] view) to delineate the aortic arch and view the descending aorta. Images were acquired at 1 and 2 h and occasionally at 3 and 5 h after injection. Supplementary anesthesia was injected as needed prior to each image collection.
At 2.5 h (after a 2 h scan), animals were sacrificed with an intravenous dose of sodium pentobarbital. Upon necropsy, the aorta was removed and branching vessels dissected free from the aortic valve to the mid-abdominal region. Using a parallel hole collimator, the aorta was imaged ex corpora. Next, the aortae were opened longitudinally and stained with Sudan IV, thereby turning atherosclerotic plaque a deep red brick color. Lipid-free and uninjured aortic endothelium retains its normal, glistening white-pink appearance under these conditions.

[2] abbreviates: Tc-99m labeled, i.v., tissues after final image (about 4 h), average ± SD.

Turning to “(CH2 CO--YD.Apc.GDCGGCAcm GCAcm GGC.amide)2 -[BAT-BS] [Compound P357]”, the “% ID/g Thrombus” value in series [1] (Tc-99m labeled, i.v., thrombus dissected after final image (about 4 h), average ± SD) turned out to be 0.016 ± 0.005 % ID/g. Also, in series [1] (setting [2]), the Thrombus/Blood ratio amounted to 5.6 ± 1.4 and the Thrombus/Muscle ratio came to 17 ± 4.7. Further, the Thrombus/Background ratio in series [1] (counts/pixel in ROI over thrombus and adjacent muscle from images, Tc-99m labeled, i.v., n = 1) was found to be 2.3. Besides, in series [1] (post-injection), the “Time to clearly established localization of thrombus” value is given as not above 1 h. Moreover, the “Time of first indications of labeled peptide uptake in images” value in series [1] (post-injection, anterior view over hind legs of one dog (FIG. 4)) turned out to be 23 min. In addition, the “Time to unequivocal localization in images” value in series [1] (post-injection, one dog (FIG. 4), persisted until the end of the imaging period) is listed as not above 71 min. Also, the “Persistence of thrombus localization” value in series [1] (post-injection, with increasing contrast and focal definition) is approximately 4 h.

In the case of “[BAT]RALVDTLKFVTQAEGAK.amide [Compound P215]”, the “Radioactivity accumulation in HC aortae imaged ex corpora” value in the series on atherosclerotic plaque (HC-fed rabbits, aorta removed at 2.5 h) is given as “greatest deposition in the region of the aortic arch”. For the same substance, the “Correlation of in vivo and ex corpora images with Sudan IV deposition patterns” value in the series on atherosclerotic plaque (HC-treated rabbit aortae) was “Positive correlations”. For the same substance, in the series on atherosclerotic plaque (Tc-99m labeled), the “Imaging of atherosclerotic plaque (uptake)” value was “high uptake”. For the same substance, the “Uptake in normal aortic tissue” value in the series on atherosclerotic plaque (control (plaque-free) aortae) was “minimal uptake”. Moreover, the Principal clearance pathway result in the series with atherosclerotic plaque (rabbit, in vivo) is on record as “hepatobiliary system”. Besides, the Systemic clearance result with atherosclerotic plaque (rabbit, in vivo, iv) is listed as “rapid systemic clearance”.
